Test results from patent publication US20240246964A1 (Arbutus Biopharma Corporation, priority 2021, published 2024).

How the values were obtained:
[1] = molecular target: PD-L1 His protein / PD-1 Fc protein (Homo sapiens (Human), UniProt Q9NZQ7); assay: HTRF Assay (PD-1/PD-L1 interaction); format: binding; details: PD-L1 His 6 nM, PD-1 Fc 6 nM
human PD-L1 = human PD-L1 (Homo sapiens (Human), UniProt Q9NZQ7); assay: T cell activation luciferase reporter cell culture system (T Cell Activation Assay); format: cell-based; details: luciferase reporter assay; PD-L1 aAPC/CHO-K1 cells with PD-1 effector Jurkat T cells
Sequence of human PD-L1 (Q9NZQ7 19-290): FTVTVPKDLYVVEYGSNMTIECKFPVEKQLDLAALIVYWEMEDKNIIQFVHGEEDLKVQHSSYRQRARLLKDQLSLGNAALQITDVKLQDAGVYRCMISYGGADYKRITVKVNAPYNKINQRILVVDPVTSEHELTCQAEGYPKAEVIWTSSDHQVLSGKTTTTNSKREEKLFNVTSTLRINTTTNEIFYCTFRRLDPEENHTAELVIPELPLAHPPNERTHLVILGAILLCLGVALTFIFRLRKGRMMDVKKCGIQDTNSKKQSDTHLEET

Sequence of PD-L1 His protein / PD-1 Fc protein (Q9NZQ7 19-238): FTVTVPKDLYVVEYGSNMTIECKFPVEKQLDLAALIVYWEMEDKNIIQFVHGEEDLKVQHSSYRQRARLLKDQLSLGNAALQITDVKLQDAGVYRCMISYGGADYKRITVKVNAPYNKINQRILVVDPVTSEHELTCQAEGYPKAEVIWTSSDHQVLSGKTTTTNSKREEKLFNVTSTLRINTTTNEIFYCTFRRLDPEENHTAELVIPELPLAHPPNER

Compound	IC50 [1] [nM]	EC50 (human PD-L1) [nM]
CNCc1ccc(-c2cccc(-c3ccnc(-c4ccc(CN5CC[C@H](C(=O)O)C5)c(OC)c4)c3Cl)c2Cl)nc1OC [Compound 226, (S)-1-(4-(3-chloro-4-(2-chloro-3-(6-methoxy-5-((methylamino)methyl)pyridin-2-yl)phenyl)pyridin-2-yl)-2-methoxybenzyl)pyrrolidine-3-carboxylic acid]	0.27	62.7
CNCc1ccc(-c2cccc(-c3ccnc(-c4ccc(CN5CC6(CC(C(=O)O)C6)C5)c(OC)c4)c3Cl)c2Cl)nc1OC [Compound 227, 2-(4-(3-chloro-4-(2-chloro-3-(6-methoxy-5-((methylamino)methyl)pyridin-2-yl)phenyl)pyridin-2-yl)-2-methoxybenzyl)-2-azaspiro[3.3]heptane-6-carboxylic acid]	5.25	31.3
CNCc1ccc(-c2cccc(-c3ccnc(-c4ccc(CNCC56CC(C(=O)O)(C5)C6)c(OC)c4)c3Cl)c2Cl)nc1OC [Compound 228, 3-(((4-(3-chloro-4-(2-chloro-3-(6-methoxy-5-((methylamino)methyl)pyridin-2-yl)phenyl)pyridin-2-yl)-2-methoxybenzyl)amino)methyl)bicyclo[1.1.1]pentane-1-carboxylic acid]	0.23	75.5
COc1cc(-c2nccc(-c3cccc(-c4ccc(CNCC(=O)O)c(OC)n4)c3Cl)c2Cl)cc2c1CN(C[C@H](C)O)CC2 [Compound 229, (S)-((6-(2-chloro-3-(3-chloro-2-(2-(2-hydroxypropyl)-8-methoxy-1,2,3,4-tetrahydroisoquinolin-6-yl)pyridin-4-yl)phenyl)-2-methoxypyridin-3-yl)methyl)glycine]	1.13	244
COc1nc(-c2cccc(-c3ccnc(-c4ccc5c(c4)CNC5)c3Cl)c2Cl)ccc1CN1CC2(CNC(=O)C2)C1 [Compound 230, 2-((6-(2-chloro-3-(3-chloro-2-(isoindolin-5-yl)pyridin-4-yl)phenyl)-2-methoxypyridin-3-yl)methyl)-2,6-diazaspiro[3.4]octan-7-one]	10.8	392
COc1cc(-c2nccc(-c3ccnc(-c4cc5c(c(OC)c4)CN(C[C@@H]4CCC(=O)N4)CC5)c3Cl)c2Cl)cc2c1CN(C[C@@H]1CCC(=O)N1)CC2 [Compound 266, (5S,5'S)-5,5′-(((3,3′-Dichloro-[4,4′-bipyridine]-2,2′-diyl)bis(8-methoxy-3,4-dihydroisoquinoline-6,2(1H)-diyl))bis(methylene))bis(pyrrolidin-2-one)]	18.4	439
COC(=O)[C@H](CCO)NCc1ncc(-c2nccc(-c3cccc(-c4ccc(CNC[C@@H]5CCC(=O)N5)c(OC)n4)c3Cl)c2Cl)cc1OC [Compound 267, Methyl ((3-chloro-4-(2-chloro-3-(6-methoxy-5-(((((S)-5-oxopyrrolidin-2-yl)methyl)amino)methyl)pyridin-2-yl)phenyl)-5′-methoxy-[2,3′-bipyridin]-6′-yl)methyl)-L-homoserinate]	2.97	639
COc1cc(-c2nccc(-c3cccc(-c4ccc(CNC[C@@H]5CCC(=O)N5)c(OC)n4)c3Cl)c2Cl)cnc1CN[C@H]1CCOC1=O [Compound 268, (S)-5-((((6-(2-Chloro-3-(3-chloro-5′-methoxy-6′-((((S)-2-oxotetrahydrofuran-3-yl)amino)methyl)-[2,3′-bipyridin]-4-yl)phenyl)-2-methoxypyridin-3-yl)methyl)-amino)methyl)pyrrolidin-2-one]	1.46	669
COc1cc(-c2nccc(-c3ccnc(-c4cc(F)c(CNC5CCN(C(C)=O)CC5)c(OC)c4)c3Cl)c2Cl)cc(F)c1CNC1CCN(C(C)=O)CC1 [Compound 313, 1,1′-(((((3,3′-Dichloro-[4,4′-bipyridine]-2,2′-diyl)bis(2-fluoro-6-methoxy-4,1-phenylene))bis(methylene))bis(azanediyl))bis(piperidine-4,1-diyl))bis(ethan-1-one)]	4.6	97.3
COc1cc(-c2nccc(-c3cccc(-c4ccc(CNC5CCN(C(C)=O)CC5)c(OC)n4)c3Cl)c2Cl)cnc1CNC1CCN(C(C)=O)CC1 [Compound 375, 1-(4-(((6-(3-(6′-(((1-Acetylpiperidin-4-yl)amino)methyl)-3-chloro-5′-methoxy-[2,3′-bipyridin]-4-yl)-2-chlorophenyl)-2-methoxypyridin-3-yl)methyl)amino)piperidin-1-yl)ethan-1-one]	1.24	46.4
COc1cc(-c2nccc(-c3cccc(-c4ccc(CN5CC6(CNC(=O)C6)C5)c(OC)n4)c3Cl)c2Cl)cnc1CN1CC2(CNC(=O)C2)C1 [Compound 376, 2-((3-Chloro-4-(2-chloro-3-(6-methoxy-5-((7-oxo-2,6-diazaspiro[3.4]octan-2-yl)methyl)pyridin-2-yl)phenyl)-5′-methoxy-[2,3′-bipyridin]-6′-yl)methyl)-2,6-diazaspiro[3.4]octan-7-one]	0.458	38.4
COc1cc(-c2nccc(-c3cccc(-c4ccc(CN5CC6(C5)CN(C(C)=O)C6)c(OC)n4)c3Cl)c2Cl)cnc1CN1CC2(C1)CN(C(C)=O)C2 [Compound 428, 1-(6-((6-(3-(6′-((6-Acetyl-2,6-diazaspiro[3.3]heptan-2-yl)methyl)-3-chloro-5′-methoxy-[2,3′-bipyridin]-4-yl)-2-chlorophenyl)-2-methoxypyridin-3-yl)methyl)-2,6-diazaspiro[3.3]heptan-2-yl)ethan-1-one]	0.77	51.2
COc1cc(-c2nccc(-c3cccc(-c4ccc(CNC5CC6(COC6)C5)c(OC)n4)c3Cl)c2Cl)cnc1CNC1CC2(COC2)C1 (stereo not drawn) [Compound 429, N-((4-(3-(5-(((2-Oxaspiro[3.3]heptan-6-yl)amino)methyl)-6-methoxypyridin-2-yl)-2-chlorophenyl)-3-chloro-5′-methoxy-[2,3′-bipyridin]-6′-yl)methyl)-2-oxaspiro[3.3]heptan-6-amine]	4.1	71.4
COc1cc(-c2nccc(-c3cccc(-c4ccc(CN5CC6(CCC(=O)N6)C5)c(OC)n4)c3Cl)c2Cl)cnc1CN1CC2(CCC(=O)N2)C1 [Compound 430, 2-((3-Chloro-4-(2-chloro-3-(6-methoxy-5-((6-oxo-2,5-diazaspiro[3.4]octan-2-yl)methyl)pyridin-2-yl)phenyl)-5′-methoxy-[2,3′-bipyridin]-6′-yl)methyl)-2,5-diazaspiro[3.4]octan-6-one]	0.35	23.3
COc1cc(-c2nccc(-c3cccc(-c4ccc(CNC5CCOCC5)c(OC)n4)c3Cl)c2Cl)cnc1CNC1CCOCC1 [Compound 431, N-((6-(2-Chloro-3-(3-chloro-5′-methoxy-6′-(((tetrahydro-2H-pyran-4-yl)amino)methyl)-[2,3′-bipyridin]-4-yl)phenyl)-2-methoxypyridin-3-yl)methyl)tetrahydro-2H-pyran-4-amine]	2.03	106
COc1cc(-c2cccc(-c3ccnc(-c4cnc(CNC5CCN(C(C)=O)CC5)c(OC)c4)c3Cl)c2Cl)ccc1CNC1CCN(C(C)=O)CC1 [Compound 500, 1-(4-(((4-(4′-(((1-acetylpiperidin-4-yl)amino)methyl)-2-chloro-3′-methoxy-[1,1′-biphenyl]-3-yl)-3-chloro-5′-methoxy-[2,3′-bipyridin]-6′-yl)methyl)amino)piperidin-1-yl)ethan-1-one]	1.95	120
COc1cc(-c2cccc(-c3ccnc(-c4cnc(CN5CC6(CNC(=O)C6)C5)c(OC)c4)c3Cl)c2Cl)ccc1CN1CC2(CNC(=O)C2)C1 [Compound 501, 2-((3-Chloro-4-(2-chloro-3′-methoxy-4′-((7-oxo-2,6-diazaspiro[3.4]octan-2-yl)methyl)-[1,1′-biphenyl]-3-yl)-5′-methoxy-[2,3′-bipyridin]-6′-yl)methyl)-2,6-diazaspiro[3.4]octan-7-one]	0.92	94.1
COc1cc(-c2nccc(-c3cccc(-c4ccc(CN5CC6(CNC(=O)C6)C5)c(OC)n4)c3Cl)c2Cl)cnc1CNC1CCN(C(C)=O)CC1 [Compound 547, 2-((6-(3-(6′-(((1-acetylpiperidin-4-yl)amino)methyl)-3-chloro-5′-methoxy-[2,3′-bipyridin]-4-yl)-2-chlorophenyl)-2-methoxypyridin-3-yl)methyl)-2,6-diazaspiro[3.4]octan-7-one]	0.35	69.2
COc1cc(-c2nccc(-c3cccc(-c4ccc(CN5CC6(CNC(=O)C6)C5)c(OC)n4)c3Cl)c2Cl)cnc1CNC1CCOCC1 [Compound 548, 2-((6-(2-Chloro-3-(3-chloro-5′-methoxy-6′-(((tetrahydro-2H-pyran-4-yl)amino)methyl)-[2,3′-bipyridin]-4-yl)phenyl)-2-methoxypyridin-3-yl)methyl)-2,6-diazaspiro[3.4]octan-7-one]	1.13	75.9
COc1cc(-c2nccc(-c3cccc(-c4ccc(CN5CC6(CNC(=O)C6)C5)c(OC)n4)c3Cl)c2Cl)cnc1CNC[C@@H]1CCC(=O)N1 [Compound 550, (S)-2-((6-(2-Chloro-3-(3-chloro-5′-methoxy-6′-((((5-oxopyrrolidin-2-yl)methyl)amino)methyl)-[2,3′-bipyridin]-4-yl)phenyl)-2-methoxypyridin-3-yl)methyl)-2,6-diazaspiro[3.4]octan-7-one]	0.28	25
COc1cc(-c2nccc(-c3cccc(-c4ccc5c(CNC6CCN(C(C)=O)CC6)cn(C)c5n4)c3Cl)c2Cl)ccc1CNCCO [Compound 560, 1-(4-(((6-(2-Chloro-3-(3-chloro-2-(4-(((2-hydroxyethyl)amino)methyl)-3-methoxyphenyl)pyridin-4-yl)phenyl)-1-methyl-1H-pyrrolo[2,3-b]pyridin-3-yl)methyl)amino)piperidin-1-yl)ethan-1-one]	1.66	57.3
